Values joined by “and” are separate entries in the source; they are usually repeats but may differ in a detail not shown here. Equal entries are not always repeated. Toxic doses and inconclusive results are not listed.
Tested on: P388 leukemia ip, CD2F1 mice, survival T/C
Experiment: NCI In Vivo Anticancer Drug Screen. Data for tumor model P388 Leukemia (intraperitoneal) in CD2F1 (CDF1) mice
Conditions: endpoint: median survival time, higher = longer survival
How it was run: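 Mice carrying the transplanted tumor received test compound or vehicle. Survival was recorded in each group, and the value is the treated-group measurement divided by that of the vehicle-treated control group.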

[1] = dose: 50.0 mg/kg/injection, schedule: Q01DX009 (ip), vehicle: saline
[2] = dose: 100.0 mg/kg/injection, schedule: Q01DX009 (ip), vehicle: saline
[3] = dose: 200.0 mg/kg/injection, schedule: Q01DX009 (ip), vehicle: saline
[4] = dose: 50.0 mg/kg/injection, schedule: Q01DX005 (ip), vehicle: Klucel (hydroxypropylcellulose) (HPC)
[5] = dose: 100.0 mg/kg/injection, schedule: Q01DX005 (ip), vehicle: Klucel (hydroxypropylcellulose) (HPC)
[6] = dose: 100.0 mg/kg/injection, schedule: Q01DX009 (ip), vehicle: saline with Tween-80
[7] = dose: 60.0 mg/kg/injection, schedule: Q01DX005 (ip), vehicle: Klucel (hydroxypropylcellulose) (HPC)
[8] = dose: 120.0 mg/kg/injection, schedule: Q01DX005 (ip), vehicle: Klucel (hydroxypropylcellulose) (HPC)

SMILES: CNC(=O)N(C)C/C=C/CN(C)C(=O)NC
- T/C [1]: 105 % of control
- T/C [2]: 102 % of control
- T/C [3]: 102 % of control

SMILES: Cn1cnc2c(F)ncnc21
- T/C [4]: 100 % of control
- T/C [5]: 101 % of control

SMILES: Cc1ccc2ccccc2c1C(=N)c1cc2ccccc2c2ccccc12
- T/C [4]: 105 % of control
- T/C [5]: 87 % of control

SMILES: Cc1c(N=Nc2cccc(Cl)c2)c(-c2ccccc2)nn1C(N)=S
- T/C (dose: 100.0 mg/kg/injection, schedule: Q01DX001 (ip), vehicle: saline with Tween-80): 89 % of control
- T/C (dose: 200.0 mg/kg/injection, schedule: Q01DX001 (ip), vehicle: saline with Tween-80): 92 % of control
- T/C (dose: 400.0 mg/kg/injection, schedule: Q01DX001 (ip), vehicle: saline with Tween-80): 90 % of control

SMILES: CCCCCCCCC1SC1CCCCCCCC(=O)OCCOCCOCC (stereo not drawn)
- T/C [6]: 104 % of control
- T/C (dose: 200.0 mg/kg/injection, schedule: Q01DX009 (ip), vehicle: saline with Tween-80): 104 % of control
- T/C (dose: 400.0 mg/kg/injection, schedule: Q01DX009 (ip), vehicle: saline with Tween-80): 100 % of control

SMILES: Cc1cc(Br)c(OC(=O)Nc2cccc(Cl)c2Cl)cc1C
- T/C (dose: 12.5 mg/kg/injection, schedule: Q01DX009 (ip), vehicle: saline): 88 % of control
- T/C (dose: 25.0 mg/kg/injection, schedule: Q01DX009 (ip), vehicle: saline): 99 % of control
- T/C (dose: 50.0 mg/kg/injection, schedule: Q01DX009 (ip), vehicle: saline with Tween-80): 88 % of control
- T/C [1]: 119 % of control
- T/C [6]: 114 % of control

SMILES: NC1(C(=O)O)CCCC1C(=O)O (stereo not drawn)
- T/C [1]: 99 % of control
- T/C [2]: 99 % of control
- T/C [3]: 90 % of control

SMILES: N#Cc1c(Cl)nc2sccn12
- T/C (dose: 100.0 mg/kg/injection, schedule: Q01DX001 (ip), vehicle: Klucel (hydroxypropylcellulose) (HPC)): 95 % of control
- T/C (dose: 200.0 mg/kg/injection, schedule: Q01DX001 (ip), vehicle: Klucel (hydroxypropylcellulose) (HPC)): 103 % of control

SMILES: COc1ccc2c3c(cnc2c1)C(=O)CCC3
- T/C (dose: 50.0 mg/kg/injection, schedule: Q01DX005 (ip), vehicle: saline with Tween-80): 104 % of control
- T/C (dose: 100.0 mg/kg/injection, schedule: Q01DX005 (ip), vehicle: saline with Tween-80): 101 % of control
- T/C (dose: 200.0 mg/kg/injection, schedule: Q01DX005 (ip), vehicle: saline with Tween-80): 96 % of control

SMILES: CNc1ccc2ccc(N(C)C)cc2n1
- T/C (dose: 12.5 mg/kg/injection, schedule: Q04DX002 (ip), vehicle: Klucel (hydroxypropylcellulose) (HPC)): 102 % of control
- T/C (dose: 25.0 mg/kg/injection, schedule: Q04DX002 (ip), vehicle: Klucel (hydroxypropylcellulose) (HPC)): 97 % of control
- T/C (dose: 50.0 mg/kg/injection, schedule: Q04DX002 (ip), vehicle: Klucel (hydroxypropylcellulose) (HPC)): 101 % of control

SMILES: COC(=O)C(C)CN1CCCC1 (stereo not drawn)
- T/C (dose: 12.5 mg/kg/injection, schedule: Q04DX003 (ip), vehicle: saline): 100 % of control
- T/C (dose: 25.0 mg/kg/injection, schedule: Q04DX003 (ip), vehicle: saline): 100 % of control
- T/C (dose: 50.0 mg/kg/injection, schedule: Q04DX003 (ip), vehicle: saline): 100 % of control

SMILES: CCSc1nc2ccc(NCn3nnc4ccccc43)cc2s1
- T/C [7]: 98 % of control
- T/C [8]: 89 % of control
- T/C (dose: 240.0 mg/kg/injection, schedule: Q01DX005 (ip), vehicle: Klucel (hydroxypropylcellulose) (HPC)): 90 % of control

SMILES: CN(C)c1nc(Cl)c2cc(Cl)ccc2n1
- T/C [7]: 100 % of control
- T/C [8]: 99 % of control

SMILES: CC(C)C(=O)[O][Bi]([c]1ccccc1)[c]1ccccc1
- T/C (dose: 6.25 mg/kg/injection, schedule: Q01DX005 (ip), vehicle: Klucel (hydroxypropylcellulose) (HPC)): 108 % of control and 110 % of control
- T/C (dose: 12.5 mg/kg/injection, schedule: Q01DX005 (ip), vehicle: Klucel (hydroxypropylcellulose) (HPC)): 101 % of control and 113 % of control
- T/C (dose: 25.0 mg/kg/injection, schedule: Q01DX005 (ip), vehicle: Klucel (hydroxypropylcellulose) (HPC)): 105 % of control and 113 % of control

SMILES: O=C(NC[N+]12CCO[B-]1(c1ccc(Cl)cc1)OCC2)c1ccccc1O (stereo not drawn)
- T/C [4]: 106 % of control
- T/C [5]: 98 % of control
- T/C (dose: 200.0 mg/kg/injection, schedule: Q01DX005 (ip), vehicle: Klucel (hydroxypropylcellulose) (HPC)): 103 % of control
